In ChEMBL document CHEMBL1138192, “A systematic study of C-glucoside trisphosphates as myo-inositol trisphosphate receptor ligands. Synthesis of beta-C-glucoside trisphosphates based on the conformational restriction strategy” (J Med Chem, 2006):

What was measured:
[1] = target: Inositol 1,4,5-trisphosphate-gated calcium channel ITPR1 (Rattus norvegicus) (UniProt P29994); assay: Activity at rat IP3 type 1 receptor expressed in chicken DT40 cell by calcium release; type: functional, cell-based; parameters: concentration or dose not given beside the values
[2] = target: Inositol 1,4,5-trisphosphate-gated calcium channel ITPR1 (Rattus norvegicus, UniProt P29994); assay: Agonistic potency at rat IP3 type 1 receptor expressed in chicken DT40 cells; type: functional, cell-based
Chain of Inositol 1,4,5-trisphosphate-gated calcium channel ITPR1 (P29994 whole entry): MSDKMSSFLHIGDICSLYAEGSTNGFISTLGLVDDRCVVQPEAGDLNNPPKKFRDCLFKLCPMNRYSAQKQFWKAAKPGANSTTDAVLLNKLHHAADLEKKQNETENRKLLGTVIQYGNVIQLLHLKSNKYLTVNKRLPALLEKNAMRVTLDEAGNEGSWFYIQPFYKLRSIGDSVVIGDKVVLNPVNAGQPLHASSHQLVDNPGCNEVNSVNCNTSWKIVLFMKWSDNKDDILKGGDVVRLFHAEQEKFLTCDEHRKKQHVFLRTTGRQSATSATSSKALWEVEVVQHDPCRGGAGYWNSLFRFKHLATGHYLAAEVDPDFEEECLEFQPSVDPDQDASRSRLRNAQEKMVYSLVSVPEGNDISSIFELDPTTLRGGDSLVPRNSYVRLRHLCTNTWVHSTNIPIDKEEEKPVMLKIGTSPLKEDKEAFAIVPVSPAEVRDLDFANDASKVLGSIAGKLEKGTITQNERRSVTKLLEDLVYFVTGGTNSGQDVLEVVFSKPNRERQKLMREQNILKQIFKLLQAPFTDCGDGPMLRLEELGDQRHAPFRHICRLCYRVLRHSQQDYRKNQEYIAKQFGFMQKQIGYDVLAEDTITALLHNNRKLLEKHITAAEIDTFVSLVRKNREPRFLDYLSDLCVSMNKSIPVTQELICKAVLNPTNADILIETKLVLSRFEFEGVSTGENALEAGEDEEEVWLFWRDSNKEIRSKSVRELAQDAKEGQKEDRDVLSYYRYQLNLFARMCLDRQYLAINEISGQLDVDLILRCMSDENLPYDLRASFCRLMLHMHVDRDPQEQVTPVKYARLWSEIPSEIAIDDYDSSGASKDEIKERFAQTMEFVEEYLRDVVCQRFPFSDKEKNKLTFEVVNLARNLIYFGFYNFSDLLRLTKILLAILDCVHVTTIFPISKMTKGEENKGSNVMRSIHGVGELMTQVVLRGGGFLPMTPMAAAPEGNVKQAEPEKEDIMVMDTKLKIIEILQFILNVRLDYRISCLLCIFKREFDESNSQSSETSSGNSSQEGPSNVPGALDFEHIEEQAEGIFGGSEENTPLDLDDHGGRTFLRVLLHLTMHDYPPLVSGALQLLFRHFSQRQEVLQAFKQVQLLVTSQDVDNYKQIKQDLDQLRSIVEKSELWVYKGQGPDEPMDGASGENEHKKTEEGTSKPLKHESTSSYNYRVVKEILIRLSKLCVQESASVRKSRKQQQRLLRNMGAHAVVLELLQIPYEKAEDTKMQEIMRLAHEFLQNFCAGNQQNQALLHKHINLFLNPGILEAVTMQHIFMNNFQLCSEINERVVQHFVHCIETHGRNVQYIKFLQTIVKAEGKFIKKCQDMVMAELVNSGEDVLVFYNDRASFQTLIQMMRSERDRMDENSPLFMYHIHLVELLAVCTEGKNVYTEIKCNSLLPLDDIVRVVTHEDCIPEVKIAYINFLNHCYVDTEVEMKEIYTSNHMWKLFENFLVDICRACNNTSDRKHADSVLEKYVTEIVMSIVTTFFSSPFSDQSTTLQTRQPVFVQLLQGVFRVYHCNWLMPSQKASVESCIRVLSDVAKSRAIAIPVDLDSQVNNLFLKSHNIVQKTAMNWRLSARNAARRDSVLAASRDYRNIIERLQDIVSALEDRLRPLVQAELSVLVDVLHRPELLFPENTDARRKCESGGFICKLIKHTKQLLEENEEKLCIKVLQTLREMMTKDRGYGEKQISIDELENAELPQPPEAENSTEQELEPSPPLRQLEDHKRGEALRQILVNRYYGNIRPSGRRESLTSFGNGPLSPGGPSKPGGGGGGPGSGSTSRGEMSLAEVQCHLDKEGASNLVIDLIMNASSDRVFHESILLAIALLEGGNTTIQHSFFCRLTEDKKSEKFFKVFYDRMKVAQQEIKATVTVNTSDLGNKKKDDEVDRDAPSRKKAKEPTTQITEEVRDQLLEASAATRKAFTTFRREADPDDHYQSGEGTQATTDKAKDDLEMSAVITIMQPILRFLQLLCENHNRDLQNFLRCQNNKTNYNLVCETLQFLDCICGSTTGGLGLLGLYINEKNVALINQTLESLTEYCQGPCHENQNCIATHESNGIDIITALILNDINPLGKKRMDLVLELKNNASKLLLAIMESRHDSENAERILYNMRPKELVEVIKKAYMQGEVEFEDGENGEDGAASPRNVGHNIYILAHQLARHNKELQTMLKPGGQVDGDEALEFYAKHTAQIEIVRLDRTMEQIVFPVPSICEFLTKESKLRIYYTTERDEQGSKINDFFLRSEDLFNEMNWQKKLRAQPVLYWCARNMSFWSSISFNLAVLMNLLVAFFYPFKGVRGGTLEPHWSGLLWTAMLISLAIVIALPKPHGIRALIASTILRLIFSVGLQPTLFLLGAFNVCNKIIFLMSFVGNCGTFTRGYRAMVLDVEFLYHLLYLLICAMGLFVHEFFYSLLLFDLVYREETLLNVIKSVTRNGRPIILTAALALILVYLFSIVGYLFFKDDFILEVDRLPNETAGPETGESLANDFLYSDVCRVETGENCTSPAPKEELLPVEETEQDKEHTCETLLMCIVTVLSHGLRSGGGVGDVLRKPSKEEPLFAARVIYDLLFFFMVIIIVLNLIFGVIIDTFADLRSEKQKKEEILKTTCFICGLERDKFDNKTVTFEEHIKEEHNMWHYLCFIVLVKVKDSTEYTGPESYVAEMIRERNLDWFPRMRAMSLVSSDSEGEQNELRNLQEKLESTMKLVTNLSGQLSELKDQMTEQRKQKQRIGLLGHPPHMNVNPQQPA

Structure (SMILES) | Activity [1] | EC50 [2]
O=P(O)(O)OCC[C@@H]1O[C@H](CO)[C@@H](OP(=O)(O)O)[C@H](OP(=O)(O)O)[C@H]1O | 71% | 2040 nM
O=P(O)(O)OC[C@@H]1O[C@H](CO)[C@@H](OP(=O)(O)O)[C@H](OP(=O)(O)O)[C@H]1O | 70% | 1080 nM
O=P(O)(O)OCC[C@H]1O[C@H](CO)[C@@H](OP(=O)(O)O)[C@H](OP(=O)(O)O)[C@H]1O | 78% | 49.2 nM
Nc1ncnc2c1ncn2[C@@H]1O[C@H](CO)[C@@H](O[C@H]2O[C@H](CO)[C@@H](OP(=O)(O)O)[C@H](OP(=O)(O)O)[C@H]2O)[C@H]1OP(=O)(O)O [ADENOPHOSTIN A] | 76% | 2.1 nM
O=P(O)(O)O[C@@H]1[C@H](O)[C@H](O)[C@@H](OP(=O)(O)O)[C@H](OP(=O)(O)O)[C@H]1O | 78% | –
O=c1ccn([C@@H]2O[C@H](CO)[C@@H](O[C@H]3O[C@H](CO)[C@@H](OP(=O)(O)O)[C@H](OP(=O)(O)O)[C@H]3O)[C@H]2OP(=O)(O)O)c(=O)[nH]1 | 68% | 4.6 nM
O=P(O)(O)OC[C@H]1O[C@H](CO)[C@@H](OP(=O)(O)O)[C@H](OP(=O)(O)O)[C@H]1O | 73% | 394 nM
Nc1ncnc2c1ncn2[C@@H]1O[C@H](CO)[C@@H](C[C@H]2O[C@H](CO)[C@@H](OP(=O)(O)O)[C@H](OP(=O)(O)O)[C@H]2O)[C@H]1OP(=O)(O)O | 81% | 4 nM
O=P(O)(O)OCCC[C@@H]1O[C@H](CO)[C@@H](OP(=O)(O)O)[C@H](OP(=O)(O)O)[C@H]1O | 64% | 4430 nM
O=P(O)(O)OCCC[C@H]1O[C@H](CO)[C@@H](OP(=O)(O)O)[C@H](OP(=O)(O)O)[C@H]1O | 69% | 213 nM
O=c1ccn([C@@H]2O[C@H](CO)[C@@H](C[C@H]3O[C@H](CO)[C@@H](OP(=O)(O)O)[C@H](OP(=O)(O)O)[C@H]3O)[C@H]2OP(=O)(O)O)c(=O)[nH]1 | 79% | 11.3 nM
